Data as given in patent publication EP0319906A2, “Novel quinoline derivatives, processes for preparation thereof and antibacterial agent containing them” (Dainippon Pharmaceutical Co., Ltd., priority 1987, dated 1989).
Converted amounts (≈) assume the structure as drawn.

Columns and labels:
A. laidlawii PG-8 = assay: Antimycoplasma activity, twofold agar dilution MIC; format: cell-based; conditions: Acholeplasma laidlawii, PG8, 48 h; A. laidlawii PG-8; Chanock agar, 37 °C for 2 days, aerobically; calculated for free base; read-out: minimum inhibitory concentrations (MIC)
M. buccale CH-20249 = assay: Antimycoplasma activity, twofold agar dilution MIC; format: cell-based; conditions: 48 h; M. buccale CH-20249; Chanock agar, 37 °C for 2 days, anaerobically; calculated for free base; read-out: minimum inhibitory concentrations (MIC)
M. fermentans PG-18 = assay: Antimycoplasma activity, twofold agar dilution MIC; format: cell-based; conditions: Mycoplasmopsis fermentans, PG18, 48 h; M. fermentans PG-18; Chanock agar, 37 °C for 2 days, anaerobically; calculated for free base; read-out: minimum inhibitory concentrations (MIC)
M. hominis PG-21 = assay: Antimycoplasma activity, twofold agar dilution MIC; format: cell-based; conditions: Metamycoplasma hominis, PG21, 48 h; M. hominis PG-21; Chanock agar, 37 °C for 2 days, anaerobically; calculated for free base; read-out: minimum inhibitory concentrations (MIC)
M. hyorhinis BST-7 = assay: Antimycoplasma activity, twofold agar dilution MIC; format: cell-based; conditions: Mesomycoplasma hyorhinis, BST7, 48 h; M. hyorhinis BST-7; Chanock agar, 37 °C for 2 days, aerobically; calculated for free base; read-out: minimum inhibitory concentrations (MIC)
M. pneumoniae Mac = assay: Antimycoplasma activity, twofold agar dilution MIC; format: cell-based; conditions: Mycoplasmoides pneumoniae, 168 h; M. pneumoniae Mac; Chanock agar, 37 °C for 7 days, aerobically; calculated for free base; read-out: minimum inhibitory concentrations (MIC)
[1] = Urinary excretion in mice; format: in vivo
Protocol: A suspension containing Compound 1 was orally administered to mace at a dose of 5 mg/kg. Urine was collected over a period of 24 hours after administration. The level of the compound in urine was determined by the thin-layer cup-plated method using Escherichia coli kp as an indicator organism.

## Cc1c(F)c(N2C[C@@H](C)N[C@@H](C)C2)c(F)c2c1c(=O)c(C(=O)O)cn2C1CC1 [Compound 1, 1-cyclopropyl-6,8-difluoro-5-methyl-7-(cis-3,5-demethyl-1-piperazinyl)-1,4-dihydro-4-oxoquinoline-3-carboxylic acid]
A. laidlawii PG-8
  MIC: 0.05 µg/mL (≈ 0.128 µM)
M. buccale CH-20249
  MIC: 0.025 µg/mL (≈ 0.0639 µM)
M. fermentans PG-18
  MIC: 0.025 µg/mL (≈ 0.0639 µM)
M. hominis PG-21
  MIC: 0.05 µg/mL (≈ 0.128 µM)
M. hyorhinis BST-7
  MIC: 0.025 µg/mL (≈ 0.0639 µM)
M. pneumoniae Mac
  MIC: 0.05 µg/mL (≈ 0.128 µM)
[1]; amount in urine over 24 hours after oral 5 mg/kg
  Amount: 0.105 mg
[1]; mouse, in vivo, oral 5 mg/kg, mice, read-out: Urinary recovery for 24 hours
  dose excreted at 24 h: 12.7%
[1]; urine collected over 24 hours after oral 5 mg/kg
  Volume: 14.0 mL
